Assays:
Plasmodium falciparum = assay: Antiplasmodial activity against Plasmodium falciparum K1 assessed as reduction in [3H]-hypoxanthine after 42 hrs by microculture radioisotope technique; format: functional, organism-based
Vero = assay: Cytotoxicity against African green monkey Vero cells by green fluorescent protein-based assay; format: cell-based; settings: Chlorocebus sabaeus
[1] = Selectivity index, ratio of IC50 for African green monkey Vero cells to IC50 for Plasmodium falciparum K1; format: toxicity; settings: read-out: Ratio IC50
MCF7 = assay: Cytotoxicity against human MCF7 cells by resazurin microplate assay; format: functional, cell-based
NCI-H187 = assay: Cytotoxicity against human NCI-H187 cells by resazurin microplate assay; format: functional, cell-based

SMILES	IC50 (Plasmodium falciparum) [µM]	IC50 (Vero) [µM]	selectivity ratio [1]	IC50 (MCF7) [µM]	IC50 (NCI-H187) [µM]
CO/C=C(/C(=O)OC)[C@H](C)[C@H](/C=C/c1ccc2c(c1)OC(C)(C)[C@@H](OCC=C(C)C)CO2)OC	0.48	28.2	58.8	> 105	2.2
CO/C=C(/C(=O)OC)[C@H](C)[C@H](/C=C/c1cccc(OC)c1)OC	10.3	112	10.9	> 156	97.7
C=CC(C)(C)O[C@H]1COc2ccc(/C=C/C(OC)=C(C)\C(=C/OC)C(=O)OC)cc2OC1(C)C	0.089	97.9	1100	44.1	0.15
CO/C=C(/C(=O)OC)C(C)C(=O)/C=C/c1ccc2c(c1)OC(C)(C)[C@@H](OCC=C(C)C)CO2 (some centres undefined)	4.2	68.2	16.3	> 109	9.4
COC(=O)c1cc(-c2ccc3c(c2)O[C@@]2(CO3)O[C@H](C=C(C)C)OC2(C)C)cc(OC)c1C	> 22	13.6			53.4
Cc1c2ccncc2c(C)c2c1[nH]c1ccccc12 [ELLIPTECINE]		7.47			9.3
COC(=O)c1cc(-c2ccccc2)cc(OC)c1C	> 39	74		> 195	188
CC(=O)OCC/C(C)=C\[C@H](O)[C@H](O)c1ccccc1	> 38	> 189		> 189	> 189
COC(=O)/C(COC(=O)Cc1ccccc1)=C(/C)[C@H](/C=C/c1ccc(Cl)c(OC)c1)OC	> 22	55.4		> 109	37.9
C/C(=C/[C@H](O)[C@H](O)c1ccccc1)CCO	> 45	> 225		> 225	> 225
C/C(=C\c1ccccc1)[C@@H](O)C(C)(C)O	> 48	> 242		> 242	> 242
C/C(=C\c1ccccc1)[C@@H](O)C(C)(C)C(=O)O	> 43	> 213		> 213	> 213
C=CC(C)(C)O[C@H]1COc2cc(C(=O)OC)c(C)c(OC)c2OC1(C)C	8.4	43.4		> 113	54.8
CO/C=C(/C(=O)OC)C(C)C(=O)/C=C/c1ccccc1 (centres undefined)	> 36	> 182		> 182	60.1
C[C@H]1[C@@H](O)O[C@@H]2O[C@@]3(C)CC[C@H]4[C@H](C)CC[C@@H]1[C@@]24OO3 [ARTENIMOL]	0.0031				
O[C@@H](c1cc(C(F)(F)F)nc2c(C(F)(F)F)cccc12)[C@H]1CCCCN1	0.052				
CO/C=C(/C(=O)OC)C(C)C(=O)/C=C/c1ccc2c(c1)O[C@@]1(CO2)O[C@H](C=C(C)C)OC1(C)C (mixture of isomers)	10.8	18.4	1.7	23.2	5.8
CO/C=C(/C(=O)OC)[C@H](C)[C@H](/C=C/c1ccc2c(c1)OC(C)(C)[C@@H](O)CO2)OC	22.3	> 123	> 5.2	> 123	56.9
COC(=O)/C(CO)=C(/C)[C@H](/C=C/c1ccc(Cl)c(OC)c1)OC	> 29	123		> 147	141
CO\C=C(C(=O)OC)/C(C)=C\C=C\c1ccc2c(c1)OC(C)(C)[C@@H](OCC=C(C)C)CO2	0.84	> 113	> 135	24.8	4.9
C=CC(C)(C)O[C@H]1COc2ccc(/C=C/[C@H](OC)[C@@H](C)/C(=C\OC)C(=O)OC)cc2OC1(C)C	0.24	24.5	102	> 105	0.96
CO/C=C(/C(=O)OC)[C@H](C)[C@@H](O)/C=C/c1ccccc1	> 36	> 181			160
COC(=O)/C(CO)=C(/C)[C@H](/C=C/c1ccccc1)OC	> 36	> 181		> 181	> 181
C[C@]1([C@@H]2Cc3cc(C(N)=O)cc(Cl)c3O2)CCC(=O)O1	> 34	> 169		> 169	> 169
CO\C=C(C(=O)OC)/C(C)=C(\C=C\c1ccc2c(c1)O[C@@]1(CO2)O[C@H](C=C(C)C)OC1(C)C)OC	0.14	> 103	> 736	> 103	3.3
